Measured values published in patent publication US8653023B1, “Dual beneficial effect of dopamine enhancing and neuroprotective actions of PKC delta inhibitors for treatment of Parkinson's disease” (Iowa State University Research Foundation, Inc., priority 2006, dated 2014).

Columns and labels:
[1] = test system: tyrosine hydroxylase (TH); assay: TH phosphorylation in N27 cells (Western blot, immunofluorescence); type: cell-based, rat
Experimental: (§1) PC12 cells, differentiated N27 dopaminergic cells and primary mesencephalic neurons were exposed to 1-10 μM rottlerin for the duration of the experiment. DMSO (0.01%) was used as vehicle control. PKCδ-DN- and Lac Z-expressing N27 cells were only treated with 0.01% DMSO. […] Untreated or vehicle treated cells were used as control samples.
(§2) Cell and brain lysates containing equal amounts of protein were loaded in each lane and separated on a 10-12% SDS-PAGE gel as described previously (Kaul et al., 2003). After the separation, proteins were transferred to nitrocellulose membrane, and nonspecific binding sites were blocked by treating with 5% nonfat dry milk powder. The membranes were then treated with primary antibodies directed against PKCδ (rabbit polyclonal or mouse monoclonal, 1:2000 dilution), TH (rabbit polyclonal or mouse monoclonal, 1:1000), phospho TH-ser40 (rabbit polyclonal, 1:1000), phospho TH-ser31 TH (rabbit polyclonal, 1:1000), or PP2A (mouse monoclonal, 1:1000). The primary antibody treatments were followed by treatment with secondary HRP-conjugated anti-rabbit or anti-mouse IgG (1:2000) for 1 hr at RT. Secondary antibody-bound proteins were detected using Amersham's ECL chemiluminescence kit. To confirm equal protein loading, blots were reprobed with a β-actin antibody (1:5000 dilution). Western blot images were captured with a Kodak 2000 MM imaging system and data were analyzed using 1D Kodak imaging analysis software.
Immunostaining of PKCδ, TH, Ser40 P-TH and Ser31 P-TH was performed in PC12, N27 and primary mesencephalic neurons. Cells were grown on poly-L-Lysine-coated glass cover slips. After treatment, the cells were fixed with 4% paraformaldehyde and processed for immunohistochemical staining. First, non-specific sites were blocked with 5% normal goat serum containing 0.4% BSA and 0.2% Triton-X 100 in PBS for 20 min. Cells were then incubated with antibodies directed against PKCδ (1:500 dilution), TH (1:500 dilution), and P-THSer40 (1:500 dilution) overnight at 4° C. followed by incubation with either Alexa 488-conjugated (green, 1:1000) or Cy3-conjugated (red, 1:1000) secondary antibody for 1 hr at RT. Secondary antibody treatments were followed by incubation with Hoechst 33342 (10 μg/ml) for 3 min at room temperature to stain the nucleus. Then the coverslips containing stained cells were washed with PBS, mounted on a slide, and viewed under a Nikon inverted fluorescence microscope (Model TE-2000U); images were captured with a SPOT digital camera (Diagnostic Instruments, Sterling Heights, Mich.).

[2] = test system: tyrosine hydroxylase (TH); assay: TH activity (DOPA levels after NSD-1015) in N27 cells; type: cell-based, rat; settings: okadaic acid 2 μM for 2 hr
Experimental: Plasmid pPKCδ^K376R-V5 encodes the loss of function PKCδ-V5 epitope tagged mutant protein; K376R refers to the mutation of the lysine residue at position 376 to arginine in the catalytic site resulting in inactivation of the kinase. Plasmid pLacZ-V5 encodes the β-galactosidase protein alone with a V5-epitope and is used as a vector control. N27 cells stably expressing PKCδ^K376R-V5 (herein referred to as PKCδ-DN cells) and LacZ alone-expressing cells (LacZ cells) were cultured as described previously (Kitazawa et al., 2005). PKCδ-DN or LacZ expressing N27 cells were identified by immunostaining of the C-terminal V5 epitope on expressed proteins and were differentiated with cAMP analogs (e.g. dibutyral cAMP) prior to experiments. PKCδ-DN and LacZ were also transiently expressed in mouse primary mesencephalic neurons using an AMAXA® Nucleofector™ kit (AMAXA GmbH, Germany). As described above, primary mesencephalic neurons were prepared from the midbrain of 16-18-day-old mice embryos. After digestion with trypsin-EDTA-HBSS, the primary neurons were homogenously resuspended with transfection buffer provided with the kit to a final concentration of 4-5×10^6 neurons/100 μl and mixed with 1 μg plasmid DNA encoding either PKCδ-DN-V5 or LacZ-V5. […] Transfection efficiency was >75% as determined by immunostaining of V5-expression. […]

[3] = test system: primary mesencephalic dopaminergic neuronal cells; type: cell-based, mice; settings: 10 μM MPP+ for 48 hrs
Experimental: Primary mesencephalic neuronal cultures were prepared from the ventral mesencephalon of gestational 16-18-day-old mice embryos as described previously (Yang et al., 2004). Mesencephalic tissues were dissected and maintained in ice-cold Ca^2+-free HESS and then dissociated in HESS solution containing trypsin-EDTA (0.25%) for 20 min at 37° C. The dissociated cells were then plated at equal density (0.5×10^6 cells) in 30-mm-diameter tissue culture wells precoated with poly-D-lysine (1 mg/ml). Cultures were maintained in a chemically defined medium consisting of neurobasal medium fortified with B-27 supplements, L-glutamine (500 μM), penicillin (100 IU/ml), and streptomycin (100 μg/ml) (Life Technologies). The cells were maintained in a humidified CO2 incubator (5% CO2, 37° C.) for 24 hr and then treated with cytosine arabinoside (10 μM) for 24 hr to inhibit glial cell proliferation. Half of the culture medium was replaced every 2 days. Approximately 6-7-day-old cultures were used for experiments. […]
After treatment, the primary mesencephalic neurons were fixed with 4% paraformaldehyde and processed for immunocytotochemical staining. […] Then the coverslips containing stained cells were washed with PBS, mounted on a slide, and viewed under a Nikon inverted fluorescence microscope (Model TE-2000U); images were captured with a SPOT digital camera (Diagnostic Instruments, Sterling Heights, Mich.).
We used Metamorph software (Universal Imaging, Version 5.0) for measurement of TH^+ cells and neuronal processes in primary neurons from each coverslip. For measurement of TH cell count, the images were first thresholded, and then neuronal count and volume were measured using the Integrated Morphometry Analysis (IMA) function. The data were logged to an Excel spreadsheet with defined row and column positions and then analyzed. […] The data were exported to an Excel spreadsheet and analyzed. TH^+ neurons and their processes were counted in at least six individual cultures for each treatment. This method is a modified version of methodology recently used for quantification of neuronal processes.

PKCδ = PKCδ expression in siRNA-transfected N27 cells (Western blot); type: cell-based, rat; settings: vs siRNA-NS
Experimental: Small interfering RNAs (siRNAs) were prepared by an in vitro transcription method as described previously (Yang et al., 2004). Cy-3 labeling of siRNA and transfections were carried out as described in a recent publication (Yang et al., 2004). We used the siRNA PKCδ-4 and non-specific siRNA (siRNA-NS) for this study.
as §2, with “To confirm equal protein loading, blots were reprobed with a β-actin antibody (1:5000 dilution).” left out

N27 cells = assay: Cellular DA and DOPAC levels in N27 cells (HPLC-EC); type: cell-based, rat; settings: siRNA-transfected N27 cells
Experimental: as §1
DA and DOPAC levels in PC12, N27 cells and in brain striatal tissues were determined by high-performance liquid chromatography with electrochemical detection (HPLC-EC); samples were prepared as described previously (Kitazawa et al., 2001). The DA and DOPAC levels were measured as pg/mg protein and expressed as percent of control.

[4] = test system: MPTP-treated C57 black mice; assay: MPTP-induced striatal dopamine depletion (HPLC-EC); type: in vivo; settings: MPTP 30 mg/kg for 5 days alone
Experimental: (§3) Six to 8-week-old […] mice weighing 30 g were housed in standard conditions: constant temperature (22±1° C.), humidity (relative, 30%) and a 12-h light/dark cycle, and were allowed free access to food and water. The animals and protocol procedures were approved and supervised by the Committee on Animal Care (COAC) at the Iowa State University. Rottlerin was dissolved in 1% dimethyl sulfoxide (DMSO) and was administered intraperitoneally at various doses. An equal volume of DMSO was given to controls. Rottlerin and DMSO administrations were started 24 h before the injections of the MPTP and continued for 5 days in the MPTP model. In the chronic regimens of MPTP administration, MPTP in phosphate-buffered saline (PBS) was injected intraperitoneally at doses of 30 mg/kg, once a day. Mice were sacrificed 2 days after the MPTP injections, and the striata were dissected for catecholamine analysis. Additionally, rottlerin alone (0.3-20 mg/kg) was administered via intraperitoneally or orally and then brain tissues were subjected to neurochemical analyses (FIG. 8). The mesencephalons were fixed in 4% paraformaldehyde for 5 days for tyrosine hydroxylase (TH) immunostaining.
DA and DOPAC levels in brain striatal tissues were determined by high-performance liquid chromatography with electrochemical detection (HPLC-EC); samples were prepared as described previously (Kitazawa, Anantharam et al. 2001). Briefly, neurotransmitters were extracted from samples using 0.1M perchloric acid containing 0.05% Na2EDTA and 0.1% Na2S2O5. The extracts were filtered in 0.22 micron spin tubes and 20 μl of the samples was loaded for analysis. DA and DOPAC were separated isocratically by a reversed-phase column with a flow rate of 0.7 ml/min. An HPLC system (ESA Inc., Bedford, Mass.) with an ESA automatic sampler (model 542) was used for these experiments. The electrochemical detection (EC) system consisted of an ESA coulochem model 5100A with a microanalysis cell model 5014A and a guard cell model 5020 (ESA Inc., Bedford, Mass.). The DA and DOPAC levels were measured as pg/mg protein and expressed as percent of control.

[5] = test system: MPTP-treated C57 black mice; assay: TH+ neuron count in substantia nigra pars compacta of MPTP mice (stereology); type: in vivo; settings: MPTP 30 mg/kg for 5 continuous days
Experimental: as §3
Brains removed following cervical dislocation were post-fixed in paraformaldehyde and used for TH immunolabelling and stereological studies. Fixed brains were cut into 30-μm sections and collected in cryoprotectant. Sections were rinsed in PBS at room temperature before immunostaining, then incubated with a anti-TH antibody as described (Thiruchelvam, McCormack et al. 2003; Thiruchelvam, Powers et al. 2004). The total number of TH^+ and TH Nissl-stained neurons in the SNpc were counted using the optical fractionator and previously described counting criteria (Thiruchelvam, McCormack et al. 2003; Thiruchelvam, Powers et al. 2004). After delineation of the region at low magnification (4× objective), every fourth section from the entire substantia nigra was sampled at higher magnification (100× objective) using StereoImager (Microbrightfield, Vt.).

[6] = test system: MPTP-treated C57 black mice; assay: Locomotor activity of MPTP-treated mice (VersaMax); type: in vivo; settings: MPTP treatment alone, 1 day after treatment, 20-min session
Excerpt: Behavioral data were collected using VersaMax Animal Activity Monitors (AccuScan Model RXYZCM-16, Columbus, Ohio). Each chamber was 40×40×30.5 cm^3, made of clear Plexiglas and covered with a Plexiglas lid with air-holes. Infrared monitoring sensors were located every 2.54 cm along the perimeter (16 infrared beams along each side) and 2.5 cm above the floor. Two additional sets of 16 sensors were located 8.0 cm above the floor on opposite sides. Data were collected and analyzed by a VersaMax Analyzer (AccuScan Model CDA-8, Columbus, Ohio) which in turn sent information to an IBM computer where it was stored for future analyses. Locomotor activity was presented as horizontal movement and vertical movement. All data are expressed as percent of the vehicle-treated control group (mean 6 SEM) and were obtained 1 day after MPTP or vehicle treatment in a 20-min test session.

dopaminergic N27 cells = settings: cited from earlier work
[7] = N27 cells, okadaic acid 2 μM for 2 hr

Molecule: C=C1[C@@H](O)[C@@H]2O[C@]3(CC[C@H](/C=C/[C@@H](C)[C@@H]4CC(C)=C[C@@]5(O[C@H](C[C@@](C)(O)C(=O)O)CC[C@H]5O)O4)O3)CC[C@H]2O[C@@H]1[C@@H](O)C[C@H](C)[C@H]1O[C@@]2(CCCCO2)CC[C@H]1C [okadaic acid]
- baseline THser40 phosphorylation levels versus untreated cells [1, 7]: increase
- levels of total TH versus untreated cells [1, 7]: similar
- DOPA levels (TH activity) [2]: 1434±212.6 pg/10^6 cells/hr

Molecule: C[n+]1ccc(-c2ccccc2)cc1 [MPP^+, 1-methyl-4-phenylpyridinium]
- cell death and loss of neurites length of TH+ neurons [3]: 90%

Molecule: PKCδ siRNA: siRNA PKCδ-4 directed against PKCδ; probably siRNA-d-4, SEQ ID NO:7 and 8 (chain 1 AACTGTTTGTGAATTTGCCTTCCTGTCTC; chain 2 AAAAGGCAAATTCACAAACAGCCTGTCTC; listed as DNA, chemistry not given here)
- TH-Ser40 (60 kDa band) densitometry, increase versus siRNA-NS ([1]; siRNA-transfected N27 cells): 2 fold
- total TH levels versus siRNA-NS ([1]; siRNA-transfected N27 cells): similar
- reduction in PKCδ expression (PKCδ): 55%
- increase in DOPAC versus siRNA-NS (N27 cells): 71%
- increase in the DA level versus siRNA-NS (N27 cells): 45%

Molecule: CN1CC=C(c2ccccc2)CC1 [MPTP, 1-methyl-4-phenyl-1,2,3,6-tetrahydropyridine]
- dopamine level in striatum [4]: 14.49±3.77 pg DA/mg tissue weight
- reduction of striatal dopamine versus vehicle [4]: −94%
- cell loss in SNpc as compared to controls [5]: 40%
- locomotor activity compared to control group [6]: 55.17%

Molecule: O=c1c(-c2ccc(O)cc2)coc2cc(O)cc(O)c12 [genistein]
- H2O2 and MPP+-induced apoptotic cell death (genistein: also PKCδ cleavage, kinase activation) (dopaminergic N27 cells): dramatically inhibited
